From patent publication US10517889B2, “Modulators of SMAD7 expression” (Ionis Pharmaceuticals, Inc., priority 2017, dated 2019)

Columns and labels:
[1] = Body and organ weights after subcutaneous administration in beagle dogs (Example 8); assay type: in vivo; details: 30 mg/kg subcutaneous days 1, 3, 5, 8, 15, 22, 29, end of study
Experimental: (§1) There were 4 animals per group.
Body weights as well as kidney, spleen, liver (with gall bladder), mesenteric lymph node, heart, and thymus weights were measured at the end of the study. […] Ionis SMAD7 oligonucleotides that caused any changes in organ weights outside the expected range for antisense oligonucleotides were excluded from further studies.

[2] = Oligonucleotide concentration in tissues by LC-MS/MS after subcutaneous administration in beagle dogs (Example 8); assay type: in vivo; details: 30 mg/kg subcutaneous, 48 hours after the last dose
Experimental: as §1
Oligonucleotide concentrations of both ION 830025 and ION 798781 were detected in various tissues by LC-MS/MS analysis. The results are presented below, expressed as μg/g tissue. The data was collected 48 hours after the last dose.

[3] = Hematology assays after subcutaneous administration in beagle dogs (Example 8); assay type: in vivo; details: 30 mg/kg subcutaneous days 1, 3, 5, 8, 15, 22, 29
Experimental: as §1
Blood samples were collected from the cephalic vein or saphenous vein of each animal. About 0.5 mL of blood samples was put into tubes containing the potassium salt of EDTA. Blood obtained from all dog groups was measured using an ADVIA2120i hematology analyzer for measurements of the various blood cells, as well as other hematology markers.

[4] = Hematology assays after oral gavage in CD-1 mice (Example 7); assay type: in vivo; parameters: RBC: unit not given here; details: 500 mg/kg oral gavage once daily for 4 weeks
Experimental: (§2) Groups of 7-8 week old male CD-1 mice were given an oral gavage dose once daily for 4 weeks of 500 mg/kg of Ionis SMAD7 oligonucleotides. Each group contained 8 mice. One group of male CD-1 mice was administered saline by oral gavage daily.
Blood obtained from all mouse groups was measured by an ADVIA2120i hematology analyzer (Siemens, USA) for measurements of the various blood cells, as well as other hematology markers. None of the Ionis SMAD7 oligonucleotides caused changes in the levels of any of the hematology markers outside the expected range for antisense oligonucleotides.

[5] = Body and organ weights after oral gavage in CD-1 mice (Example 7); assay type: in vivo; details: 500 mg/kg oral gavage once daily for 4 weeks, end of study
Experimental: as §2
Final body weights were measured at the end of the study. There was no significant difference in the body weight of the mice treated with antisense oligonucleotide compared to the control.
None of the Ionis SMAD7 oligonucleotides caused any changes in organ weights outside the expected range for antisense oligonucleotides.

dog SMAD7 mRNA = test: Pharmacology: dog SMAD7 mRNA expression in liver, kidney, duodenum, ileum and colon after subcutaneous administration in beagle dogs (Example 8); assay type: in vivo; details: 30 mg/kg subcutaneous, necropsy, normalized to HPRT1
Experimental: as §1
The pharmacological activity of the Ionis oligonucleotides in dogs was assessed by measuring dog SMAD7 mRNA expression in liver, kidney, duodenum, ileum, and colon at necropsy. All the human ASOs used are complementary to dog SMAD7 mRNA.
Tissue samples from all dogs were analyzed for SMAD7 mRNA expression using the primer probe set RTS34649 (forward sequence […], designated SEQ ID NO: 2740; reverse sequence […], designated SEQ ID NO: 2741; probe sequence […], designated SEQ ID NO: 2742), which was normalized to mRNA levels of the housekeeping gene, HPRT1. One-way ANOVA with Dunnet's comparison test was used for statistical analysis.

human SMAD7 mRNA = test: Dose-dependent inhibition of human SMAD7 mRNA expression in Hep3B cells (Example 3, Study 1 and 2); assay type: cell-based; details: electroporation; for % inhibition of SMAD7 mRNA expression: approximately 16 hours; for IC50: Study 2 (740-20000 nM)
In short: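 Hep3B cells, 20,000 per well, electroporated with antisense oligonucleotide at 0.31, 1.25, 5.00 or 20.00 μM (first series) or 0.74, 2.22, 6.67 or 20.00 μM (second series). After ~16 h, SMAD7 mRNA measured by RT-qPCR (RTS5062), normalised to RIBOGREEN total RNA. Percent inhibition vs untreated cells; IC50 derived.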

[6] = 740 nM, Study 2, relative to untreated control cells

In the case of “798781 (CGTAAGATTCACAGCA; 3-10-3 cEt gapmer, further chemistry not given here) [compound 798781]”, the Body weight [1] is reported as 6661 g, the Heart weight [1] is reported as 53.4 g and the Kidney weight [1] is reported as 40.0 g. The Liver weight [1] was 242.9 g, the “Mesenteric LN weight” value [1] was 7.8 g and the Spleen weight [1] was 26.4 g. The Thymus weight [1] was 6.0 g, the “Full length oligonucleotide, Distal colon” value [2] was 68 µg/g and the “Full length oligonucleotide, Duodenum” value [2] was 97 µg/g. The “Full length oligonucleotide, Ileum” value [2] was 177 µg/g, the “Full length oligonucleotide, Kidney” value [2] was 3300 µg/g and the “Full length oligonucleotide, Liver” value [2] was 964 µg/g. For the same substance, the “Full length oligonucleotide, Proximal colon” value [2] was 73 µg/g, the Basophils [3] was 0.5% and the Eosinophils [3] was 2.7%. It also gave a Hematocrit [3] of 48%, a Hemoglobin [3] of 16.2 g/dL and a Lymphocytes [3] of 34%. It also gave an MCH [3] of 22.3 pg, an MCHC [3] of 33.6 g/dL and an MCV [3] of 67 fL. For the same substance, the Monocytes [3] was 6.5%, the Neutrophils [3] was 56% and the PLT [3] was 191 ^3/μL. For the same substance, the RBC [3] was 7.3 ^6/L, the Reticulocytes [3] was 0.6% and the WBC [3] was 7.3 ^3/μL. For the same substance, the Basophils [4] was 0.02 10^3/μL, the Eosinophils [4] was 0.26 10^3/μL and the Hematocrit [4] was 52.0%. It also gave a Hemoglobin [4] of 15.2 g/dL, a Lymphocytes [4] of 74.0% and an MCH [4] of 15.1 pg. For the same substance, the MCHC [4] was 29.1 g/dL, the MCV [4] was 51.7 fL and the Monocytes [4] was 0.18 10^3/μL. The Neutrophils [4] was 18.0%, the RBC [4] was 10.1 and the Reticulocytes [4] was 3.0%. The WBC [4] was 5.7 10^3/μL, the platelets [4] was 1099 10^3/μL and the Body weight [5] was 35 g. For the same substance, the Heart weight [5] was 0.17 g, the Kidneys weight [5] was 0.64 g and the “Liver with gallbladder weight” value [5] was 1.86 g. The Spleen weight [5] was 0.09 g, the “% inhibition of SMAD7 mRNA expression (compared to control), Distal colon” value (dog SMAD7 mRNA) was 34% and the “% inhibition of SMAD7 mRNA expression (compared to control), Duodenum” value (dog SMAD7 mRNA) was 0%. The “% inhibition of SMAD7 mRNA expression (compared to control), Ileum” value (dog SMAD7 mRNA) was 0%, the “% inhibition of Smad7 mRNA expression (compared to control), Kidney” value (dog SMAD7 mRNA) was 28% and the “% inhibition of Smad7 mRNA expression (compared to control), Liver” value (dog SMAD7 mRNA) was 0%. The “% inhibition of SMAD7 mRNA expression (compared to control), Proximal colon” value (dog SMAD7 mRNA) was 26%, the “% inhibition of SMAD7 mRNA expression” value (human SMAD7 mRNA; [6]) was 46% and the “% inhibition of SMAD7 mRNA expression” value (human SMAD7 mRNA; 2220 nM, Study 2) was 64%. For the same substance, the “% inhibition of SMAD7 mRNA expression” value (human SMAD7 mRNA; 6670.0 nM, Study 2) was 81%, the “% inhibition of SMAD7 mRNA expression” value (human SMAD7 mRNA; 20000.0 nM, Study 2) was 87% and the IC50 (human SMAD7 mRNA) was 2000 nM.

With “830025 (antisense TTTGTAAATCGAAAGC; 3-10-3 cEt gapmer, further chemistry not given here) [compound 830025]” the Body weight [1] was 7403 g, the Heart weight [1] was 60.5 g and the Kidney weight [1] was 40.3 g. The Liver weight [1] was 250.3 g, the “Mesenteric LN weight” value [1] was 10.9 g and the Spleen weight [1] was 28.9 g. The Thymus weight [1] was 8.3 g, the “Full length oligonucleotide, Distal colon” value [2] was 49 µg/g and the “Full length oligonucleotide, Duodenum” value [2] was 97 µg/g. For the same substance, the “Full length oligonucleotide, Ileum” value [2] was 41 µg/g, the “Full length oligonucleotide, Kidney” value [2] was 1470 µg/g and the “Full length oligonucleotide, Liver” value [2] was 466 µg/g. The “Full length oligonucleotide, Proximal colon” value [2] was 31 µg/g, the Basophils [3] was 0.3% and the Eosinophils [3] was 2.4%. The Hematocrit [3] was 43%, the Hemoglobin [3] was 13.9 g/dL and the Lymphocytes [3] was 34%. The MCH [3] was 21.7 pg, the MCHC [3] was 32.5 g/dL and the MCV [3] was 67 fL. For the same substance, the Monocytes [3] was 8.2%, the Neutrophils [3] was 55% and the PLT [3] was 250 ^3/μL. For the same substance, the RBC [3] was 6.4 ^6/L, the Reticulocytes [3] was 1.2% and the WBC [3] was 5.7 ^3/μL. For the same substance, the Basophils [4] was 0.01 10^3/μL, the Eosinophils [4] was 0.08 10^3/μL and the Hematocrit [4] was 52.4%. The Hemoglobin [4] was 15.0 g/dL, the Lymphocytes [4] was 77.6% and the MCH [4] was 14.9 pg. The MCHC [4] was 28.5 g/dL, the MCV [4] was 52.3 fL and the Monocytes [4] was 0.12 10^3/μL. The Neutrophils [4] was 17.5%, the RBC [4] was 10.1 and the Reticulocytes [4] was 3.2%. For the same substance, the WBC [4] was 4.7 10^3/μL, the platelets [4] was 1236 10^3/μL and the Body weight [5] was 35 g. The Heart weight [5] was 0.17 g, the Kidneys weight [5] was 0.71 g and the “Liver with gallbladder weight” value [5] was 1.88 g. The Spleen weight [5] was 0.10 g, the “% inhibition of SMAD7 mRNA expression (compared to control), Distal colon” value (dog SMAD7 mRNA) was 3% and the “% inhibition of SMAD7 mRNA expression (compared to control), Duodenum” value (dog SMAD7 mRNA) was 7%. The “% inhibition of SMAD7 mRNA expression (compared to control), Ileum” value (dog SMAD7 mRNA) was 9%, the “% inhibition of Smad7 mRNA expression (compared to control), Kidney” value (dog SMAD7 mRNA) was 25% and the “% inhibition of Smad7 mRNA expression (compared to control), Liver” value (dog SMAD7 mRNA) was 0%. The “% inhibition of SMAD7 mRNA expression (compared to control), Proximal colon” value (dog SMAD7 mRNA) was 24%, the “% inhibition of SMAD7 mRNA expression” value (human SMAD7 mRNA; [6]) was 42% and the “% inhibition of SMAD7 mRNA expression” value (human SMAD7 mRNA; 2220 nM, Study 2) was 58%. For the same substance, the “% inhibition of SMAD7 mRNA expression” value (human SMAD7 mRNA; 6670.0 nM, Study 2) was 72%, the “% inhibition of SMAD7 mRNA expression” value (human SMAD7 mRNA; 20000.0 nM, Study 2) was 88% and the IC50 (human SMAD7 mRNA) was less than 700 nM.
